Test results reported in publication PMC12266748, “A Xanthine Derivative With Novel Heat Shock Protein 90‐Alpha Inhibitory and Senolytic Properties” (Aging Cell, 2025).
Read-outs that look alike come from different tables or passages of the source.

Tests used:
[1] = system: Human mesenchymal stem cells (MSCs); test: MTT viability of Doxorubicin-induced senescent and non-senescent MSCs; assay type: cell-based; conditions: for EC50: Homo sapiens, Mesenchymal stem cells, MTT
Text: IMR90 and WI38 lung fibroblasts were purchased from ECACC‐Merck. Human bone marrow (BM)‐derived mesenchymal stromal cells (MSCs) were purchased from Lonza. Human umbilical vein endothelial cells (HUVECs) are primary cells obtained from a pool of donors purchased from Clonetics (Lonza). Murine ear fibroblasts (MearFs) were obtained from C57BL/6J mice maintained in the INRCA “Specific Pathogen Free” (SPF) animal facility. MCF7 breast cancer cells were purchased from ATCC. For dose–response curves, IMR90 and WI38 were induced to senescence through replicative passages; MSCs, HUVECs, and MearFs senescence was induced with Doxorubicin; MCF7 senescence was induced with 4‐Hydroxytamoxifen (Lee et al. [2014]). The EC50 was calculated using GraphPad Prism 10 software. All treatment specifications are reported in the extended section.
Cell viability was determined using an MTT assay. Absorbance was measured using a NB‐12‐0035 Microplate Reader (NeoBiotech Co.). Data are expressed as a percentage of viability compared with untreated cells.
Human bone marrow (BM)-derived mesenchymal stromal cells (MSCs) were purchased from Lonza (Allendale, NJ, USA) and cultured in α-MEM (Euroclone, Milano, Italy), with 10% fetal bovine serum (FBS, Lonza, Stein, Switzerland), 100 U/mL penicillin, […] streptomycin and 2 mM L-glutamine. Cells were seeded at a density of 5000/cm^2 and maintained at 37°C in a humidified atmosphere with 5% CO2. The culture medium was changed at 48 h intervals, and cells were trypsinized when almost 80% were confluent using 0.25% trypsin-EDTA (Euroclone, Milano, Italy). […]
Cell viability assay. Cell viability has been determined with MTT (3-(4,5-dimethylthiazol-2-yl)-2, 5-diphenyltetrazolium bromide) assay. […] Insoluble formazan salts produced were solubilized with DMSO incubation, and then absorbance was measured at 540 nm using a microplate reader (NB-12-0035 Microplate Reader, NeoBiotech Co., Seoul, Republic of Korea). Data are expressed as a percentage of viability compared with untreated cells (the control group has been considered 100% of viability).

[2] = Mouse plasma exposure after oral and intravenous administration, brain and kidney distribution; assay type: in vivo, CD1 mouse; conditions: for Kp: CD1, mouse, relative to plasma; for half-life: read-out: T ½ in plasma
Method: APHAD S.r.l (Buccinasco, MI, Italy) performed all evaluations. Detailed protocols are reported in the extended methods section.
Determination of the mouse plasma exposure of K5 after oral […] and intravenous (IV) administration. Determination of K5 distribution in brain and kidney after IV administration. Weighed tissues were homogenized with a Precellys Evolution Homogenizer 1g/5mL of 20 mM ammonium formate buffer pH 6.5 using 3 cycles 25 sec at a speed of 7600 rpm. Plasma or tissue was added to ACN containing Verapamil as Internal standard (0.1 µM) in a […]. Samples were shaken for 10 min at 300 rpm at RT and centrifuged for 15 min at 10°C at 4700 rpm. Working solutions (WS) for the calibration curves and QC samples were prepared by diluting ACN in the range 10-20000ng/mL range. Verapamil was diluted in ACN to reach the final concentration of 0.1 µM (WS_IS). Samples were analyzed on an Acquity UPLC (Waters) coupled with an API 3200 Triple Quadrupole ABSciex. Non-compartmental analysis was applied, and the following pharmacokinetic (PK) parameters were evaluated for each subject or group of subjects: maximum plasma concentration (Cmax), plasma concentration at last timepoint (Clast), time of maximum plasma concentration (Tmax), AUC from time zero to the time of the last quantifiable plasma concentration (AUC0-last), AUC from time zero extrapolated to infinity (AUCinf), mean residence time (MRT), half-life (T½). AUCs were calculated using a linear trapezoidal rule, and a uniform weight was performed as the first general approach. Graphical concentration-time curves are produced after Log transformation (PK Solver 2.0, Excel 2007 Microsoft add-in). The ke was estimated from the terminal part of the log-concentration time plot, which included at least three data points excluding the Cmax. If the terminal phase regression based on R2 was less than 0.85, then the T½ and the AUC0-inf were not reported.

[3] = plasma, oral 30 mg/kg, CD1 mouse

## Cc1ccccc1-n1c(=O)n(Cc2ccccc2)c(=O)c2[nH]cnc21 [Compound K5, 1-benzyl-3-(2-methylphenyl)-7H-purine-2,6-dione]
[1]; DNA damage (Doxorubicin)
  Senolytic evidence (no, partly/yes): Partly
[1]; DNA damage (Doxorubicin), read-out: EC50 senescent cells
  EC50: > 200 µM
[1]; read-out: EC50 proliferating cells
  EC50: > 500 µM
[2]; brain, IV 5 mg/kg, read-out: distribution in the brain
  Kp: 0.35
[2]; kidney, IV 5 mg/kg, read-out: distribution in the kidney
  Kp: 1.31
[2]; IV 5 mg/kg, CD1 mouse
  distribution volume: high
[2]; oral 30 mg/kg, CD1 mouse
  time of Cmax: 10 min
[2]; plasma, IV 5 mg/kg, CD1 mouse
  clearance: 38 mL/min/kg
  half-life: 0.217 h
[2]; plasma, oral 30 mg/kg vs IV 5 mg/kg, CD1 mouse
  bioavailability: 54%
[2]; [3]
  Cmax: 2800 ng/mL
  half-life: ~5 h
[2]; plasma, oral 30 mg/kg, CD1 mouse, read-out: mean residence time (MRT) (converted)
  MRT: ~5 h
